Test results from patent publication US5190741A, “Agents for diagnosing and treating melanomas, aromatic halogenated derivatives usable as such agents and their preparation” (Institut National de la Sante et de la Recherche Medicale …, priority 1989, dated 1993).

Tests used:
[1] = system: grafted tumors; conditions: animals bearing grafted tumors; cited from earlier work
[2] = system: B16 murine melanoma; assay: Tissue distribution in C57 BL6 mice bearing B16; type: in vivo, mouse; conditions: for marker of the B16 murine melanoma: mouse, in vivo; for elimination kinetics: compared with derivative A
Method: The study of the tissue distribution of the ^125 I labelled compounds was performed in mice bearing grafted melanomas (cf. autoradiograms above). […] The animals are sacrificed at different time intervals of 1 to 24 hours after the injection. The blood is collected and the principal organs are excised. Aliquots are weighed and the radioactivity of the samples is measured in a […] 1191 counter (analytic tracer). The counting yield for iodine 125 is 60%. The results are expressed: as a percentage of the injected dose bound per g of tissue (% ID/g); in the form of the ratios [formula] This ratio reflects more precisely the selectivity of a molecule for an organ (tables 2, 4, 6, 8, 10 and 12).

[3] = system: melanoma in man; conditions: in vivo; cited from earlier work
[4] = system: melanoma; conditions: in vivo; cited from earlier work

SMILES | marker of the B16 murine melanoma [2] | elimination kinetics [2] | further results
O=c1[nH]c(=S)[nH]cc1I [iodothiouracil labelled with ^125 I, iodothiouracil] | – | – | localization and treatment of malignant melanoma [1]: promising agent for the localization and the treatment of malignant melanoma
CC(C)N(CCNC(=O)c1ccc(I)cc1)C(C)C [Derivative G] | markers of the B16 murine melanoma | – | –
CC(C)NC(C)Cc1ccc([123I])cc1 (stereo not drawn) [^123 I-IMP] | – | – | detection of melanoma in man [3]: used for the detection of melanoma in man
CN(C)CCCNC(=O)c1ccc(I)cc1 [Derivative J] | markers of the B16 murine melanoma | more rapid elimination | –
CCN(CC)CCCNC(=O)c1ccc(I)cc1 [Derivative L] | markers of the B16 murine melanoma | more rapid elimination | –
O=C([O-])CC(O)(CC(=O)[O-])C(=O)[O-].[67Ga+3] [citrate of gallium 67] | – | – | elimination from the digestive tract [4]: very slow elimination from the digestive tract; localization in the liver and the kidney [4]: late and extensive localization in the liver and the kidney
CN(C)CCNC(=O)c1ccc(I)cc1 [Derivative E] | markers of the B16 murine melanoma | more rapid elimination | possibility for use in scanning ([2]; between 3 h and 6 h after administration): possibilities for use in scanning between 3 h and 6 h
